Tests used:
[1] = biological target: T1, glucosylceramide synthase (GCS) (Canis lupus familiaris, UniProt A0A8I3MXG6); assay: GCS inhibition in MDCK cell homogenates (Lysate IC50); format: biochemical, canine; conditions: MDCK cell homogenate
T1 construct: endogenous in cells; host or cells: MDCK cell homogenate
T1 sequence (A0A8I3MXG6 1-394): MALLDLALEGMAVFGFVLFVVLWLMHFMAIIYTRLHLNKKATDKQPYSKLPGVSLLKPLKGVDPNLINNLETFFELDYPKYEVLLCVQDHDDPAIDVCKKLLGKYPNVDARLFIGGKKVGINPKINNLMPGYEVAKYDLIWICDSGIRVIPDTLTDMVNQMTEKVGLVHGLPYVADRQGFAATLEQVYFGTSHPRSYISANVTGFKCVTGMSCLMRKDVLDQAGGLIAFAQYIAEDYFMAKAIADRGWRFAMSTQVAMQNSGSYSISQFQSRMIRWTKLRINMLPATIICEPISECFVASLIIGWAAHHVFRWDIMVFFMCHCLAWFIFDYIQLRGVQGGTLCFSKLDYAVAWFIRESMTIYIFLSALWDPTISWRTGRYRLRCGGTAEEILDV
Method: GCS Inhibition in MDCK Cell Homogenates (Lysate IC50, Table 1)
IC50 values for new compounds of the invention were determined as reported in Shayman J. A., Abe A. 2000. Glucosylceramide synthase: assay and properties. Methods Enzymol.311: 42-49.

GCS in MDCKII cells = biological target: T2, GCS in MDCKII cells (Canis lupus familiaris, UniProt A0A8I3MXG6); assay: GCS inhibition in MDCKII cells (glucosylceramide content after 24 h); format: cell-based, canine; conditions: 24 hours exposure, glucosylceramide level
T2 construct: whole cellular lipids of wild type MDCKII cells were extracted; endogenous in cells; host or cells: wild type MDCKII cells
T2 sequence (A0A8I3MXG6 1-394): T1 sequence (A0A8I3MXG6 1-394)
Method: GCS Inhibition in MDCKII Cells (MDCKII IC50, Table 1)
MDCKII cells were routinely maintained in medium consisting of Opti-MEM/F12 (1:1), 5% FBS, 100 U/mL of penicillin, 100 µg/mL streptomycin and 200 mM L-glutamine. MDCKII cells were newly thawed from frozen ampules every two months.
Stock solutions of water-insoluble glycosphingolipid inhibitors (100 mM) were prepared by dissolving each inhibitor into 100% ethanol as previously described (3). The inhibitor-ethanol solutions then were diluted 50X into 2 mM delipidated bovine serum albumin-phosphate buffered saline solution to make water-soluble glycosphingolipid inhibitor-bovine serum albumin complexes. The inhibitor-bovine serum album complexes were sterile-filtered and stored at -20° C. Prior to use, portions of the inhibitor-bovine serum albumin complexes were further diluted with Opti-F12 to make treatment solutions. Equal amounts of bovine serum albumin and ethanol were added into the control cultures. Cells (5 x 10^5) were seeded into 10-cm culture dishes containing 10 ml of Opti-F12 with 5% FBS. After 24 hours, the medium was replaced with fresh serum-free Opti-F12 medium, and cells were exposed to candidate GCS inhibitors at concentrations of 0, 1, 3, 10, 30, 100 and 300 nM for 24 hours.
Following inhibitor treatment, whole cellular lipids of wild type MDCKII cells were extracted as previously described in detail (10). Briefly, cells were washed with ice-cold phosphate buffered saline, fixed by methanol, and collected with rubber scraper. Chloroform was then added to yield a theoretical ratio of chloroform:methanol:water at 1:2:0.8 (v/v/v) to form a mono-phase. Cell debris and proteins were removed by centrifugation at 2200 x g for 30 min. The supernatants were portioned by adding chloroform and 0.9% NaCl. The lower organic phases containing neutral glycosphingolipids lipids were washed with methanol and 0.9% NaCl, and subjected to base- and acid-hydrolysis (10). A portion of purified glycosphingolipids normalized to 100 nmol of total phospholipids was analyzed by high performance thin layer chromatography. The thin layer chromatography separations were processed twice. The plate pretreated with 1% sodium borate was first developed in a solvent system consisting of chloroform/methanol (98/2, v/v). After air drying, the plate was then developed in a solvent system containing chloroform/methanol/water (70/30/4, v/v/v). The levels of glucosylceramide were detected by charring with 8% cupric sulfate in 8% phosphoric acid, and quantified by densitometric scanning using ImageJ, NIH Image. Image data was analyzed, and the IC50 of each inhibitor was calculated using GraphPad Prism (version 5.03).

Compound | IC50 [1] | IC50 (GCS in MDCKII cells)
O=C(CC1Cc2ccccc2C1)N[C@H](CN1CCCC1)[C@H](O)c1ccccn1 [Example 4, 2-(2,3-dihydro-1H-inden-2-yl)-N-((1S,2R)-1-hydroxy-1-(pyridin-2-yl)-3-(pyrrolidin-1-yl)propan-2-yl)acetamide] | 152 nM | 16.9 nM
CC(C)(C)Oc1ccc([C@H](O)[C@H](CN2CCCC2)NC(=O)CC2Cc3ccccc3C2)nc1 [Example 18, N-((1R,2S)-1-(5-(tert-butoxy)pyridin-2-yl)-1-hydroxy-3-(pyrrolidin-1-yl)propan-2-yl)-2-(2,3-dihydro-1H-inden-2-yl)acetamide] | > 2000 nM | 
O=C(CC1Cc2ccccc2C1)N[C@H](CN1CCCC1)[C@H](O)c1cc(Cl)ccn1 (stereo in doubt) [Example 23, (+/-)-N-(1-(4-chloropyridin-2-yl)-1-hydroxy-3-(pyrrolidin-1-yl)propan-2-yl)-2-(2,3-dihydro-1H-inden-2-yl)acetamide] | 16.1 nM | 
O=C(CC1Cc2ccccc2C1)N[C@@H](CN1CCCC1)[C@@H](O)c1cc(Cl)ccn1 (stereo in doubt) [Example 26] | > 2000 nM | 
COc1cncc([C@@H](O)[C@@H](CN2CCCC2)NC(=O)CC2Cc3ccccc3C2)c1 [Example 9, 2-(2,3-dihydro-1H-inden-2-yl)-N-((1R,2R)-1-hydroxy-1-(5-methoxypyridin-3-yl)-3-(pyrrolidin-1-yl)propan-2-yl)acetamide] | > 5000 nM | > 1000 nM
COc1ccc([C@@H](O)[C@@H](CN2CC3CC3C2)NC(=O)CC2Cc3ccccc3C2)nc1 (stereo partly drawn) [Example 15, N-((1S,2R)-3-(3-azabicyclo[3.1.0]hexan-3-yl)-1-hydroxy-1-(5-methoxypyridin-2-yl)propan-2-yl)-2-(2,3-dihydro-1H-inden-2-yl)acetamide] | 21.3 nM | 9.3 nM
COc1ccc([C@@H](O)[C@@H](CN2CCC(C)(C)C2)NC(=O)CC2Cc3ccccc3C2)nc1 [Example 16, 2-(2,3-dihydro-1H-inden-2-yl)-N-((1S,2R)-3-(3,3-dimethylpyrrolidin-1-yl)-1-hydroxy-1-(5-methoxypyridin-2-yl)propan-2-yl)acetamide] | > 2000 nM | > 1000 nM
CC(C)(C)Oc1ccc([C@@H](O)[C@@H](CN2CCCC2)NC(=O)CC2Cc3ccc(F)cc3C2)nc1 (stereo partly drawn) [Example 24, N-((1S,2R)-1-(5-(tert-butoxy)pyridin-2-yl)-1-hydroxy-3-(pyrrolidin-1-yl)propan-2-yl)-2-(5-fluoro-2,3-dihydro-1H-inden-2-yl)acetamide] | 568 nM | 23.8 nM
COc1ccc([C@@H](O)[C@@H](CN2CC[C@@H](F)C2)NC(=O)CC2Cc3ccccc3C2)nc1 [Example 19, 2-(2,3-dihydro-1H-inden-2-yl)-N-((1S,2R)-3-((R)-3-fluoropyrrolidin-1-yl)-1-hydroxy-1-(5-methoxypyridin-2-yl)propan-2-yl)acetamide] | 82 nM | 13.9 nM
COc1ccc([C@H](O)[C@H](CN2CCCC2)NC(=O)CC2Cc3ccccc3C2)nc1 [Example 11, 2-(2,3-dihydro-1H-inden-2-yl)-N-((1R,2S)-1-hydroxy-1-(5-methoxypyridin-2-yl)-3-(pyrrolidin-1-yl)propan-2-yl)acetamide] | > 2000 nM | 
COc1ccnc([C@@H](O)[C@@H](CN2CCCC2)NC(=O)CC2Cc3ccccc3C2)c1 [Example 12, 2-(2,3-dihydro-1H-inden-2-yl)-N-((1S,2R)-1-hydroxy-1-(4-methoxypyridin-2-yl)-3-(pyrrolidin-1-yl)propan-2-yl)acetamide] | 24900 nM | 79.5 nM
COc1ccc(C(O)[C@@H](CN2CCCC2)NC(=O)CC2Cc3ccccc3C2)nc1 (stereo in doubt) [Example 2, 2-(2,3-dihydro-1H-inden-2-yl)-N-((1R,2R)-1-hydroxy-1-(5-methoxypyridin-2-yl)-3-(pyrrolidin-1-yl)propan-2-yl)acetamide] | 24.8 nM | 6.8 nM
COc1cc([C@@H](O)[C@@H](CN2CCCC2)NC(=O)CC2Cc3ccccc3C2)ccn1 [Example 8, 2-(2,3-dihydro-1H-inden-2-yl)-N-((1R,2R)-1-hydroxy-1-(2-methoxypyridin-4-yl)-3-(pyrrolidin-1-yl)propan-2-yl)acetamide] | 56 nM | 94.6 nM
O=C(CC1Cc2ccccc2C1)N[C@H](CN1CCCC1)[C@H](O)c1ccc(OCC(F)(F)F)cn1 [Example 6, 2-(2,3-dihydro-1H-inden-2-yl)-N-((1S,2R)-1-hydroxy-3-(pyrrolidin-1-yl)-1-(5-(2,2,2-trifluoroethoxy)pyridin-2-yl)propan-2-yl)acetamide] | 21.7 nM | 2.4 nM
O=C(CC1Cc2ccccc2C1)N[C@H](CN1CCCC1)[C@H](O)c1cccnc1 [Example 13, 2-(2,3-dihydro-1H-inden-2-yl)-N-((1R,2R)-1-hydroxy-1-(pyridin-3-yl)-3-(pyrrolidin-1-yl)propan-2-yl)acetamide] | 182 nM | 594 nM
O=C(CC1Cc2ccccc2C1)N[C@@H](CN1CCCC1)[C@@H](O)c1ccc(OC(F)(F)F)cn1 [Example 22, 2-(2,3-dihydro-1H-inden-2-yl)-N-((1R,2S)-1-hydroxy-3-(pyrrolidin-1-yl)-1-(5-(trifluoromethoxy)pyridin-2-yl)propan-2-yl)acetamide] | > 1000 nM | 
COc1cccnc1[C@@H](O)[C@@H](CN1CCCC1)NC(=O)CC1Cc2ccccc2C1 [Example 14, 2-(2,3-dihydro-1H-inden-2-yl)-N-((1S,2R)-1-hydroxy-1-(3-methoxypyridin-2-yl)-3-(pyrrolidin-1-yl)propan-2-yl)acetamide] | > 2000 nM | 444 nM
CC(C)(C)Oc1ccc([C@@H](O)[C@@H](CN2CCCC2)NC(=O)CC2Cc3ccccc3C2)nc1 [Example 7, N-((1S,2R)-1-(5-(tert-butoxy)pyridin-2-yl)-1-hydroxy-3-(pyrrolidin-1-yl)propan-2-yl)-2-(2,3-dihydro-1H-inden-2-yl)acetamide] | 16.3 nM | 7.9 nM
O=C(CC1Cc2ccccc2C1)N[C@H](CN1CCCC1)[C@H](O)c1ccc(OC(F)(F)F)cn1 (racemic) [Example 5, 2-(2,3-dihydro-1H-inden-2-yl)-N-((1S,2R)-1-hydroxy-3-(pyrrolidin-1-yl)-1-(5-(trifluoromethoxy)pyridin-2-yl)propan-2-yl)acetamide] | 249 nM | 6.5 nM
COc1cccc([C@@H](O)[C@@H](CN2CCCC2)NC(=O)CC2Cc3ccccc3C2)n1 [Example 3, 2-(2,3-dihydro-1H-inden-2-yl)-N-((1S,2R)-1-hydroxy-1-(6-methoxypyridin-2-yl)-3-(pyrrolidin-1-yl)propan-2-yl)acetamide] | 198 nM | 30.5 nM
O=C(CC1Cc2ccccc2C1)N[C@H](CN1CCCC1)[C@H](O)c1cccc(Cl)n1 [Example 20, N-((1S,2R)-1-(6-chloropyridin-2-yl)-1-hydroxy-3-(pyrrolidin-1-yl)propan-2-yl)-2-(2,3-dihydro-1H-inden-2-yl)acetamide] | 131 nM | 61 nM
2-(2,3-dihydro-1H-inden-2-yl)-N-((1R,2R)-1-hydroxy-1-(6-methoxypyridin-3-yl)-3-(pyrrolidin-1-yl)propan-2-yl)acetamide [Example 1] | > 1000 nM | > 1000 nM
O=C(CC1Cc2ccccc2C1)N[C@H](CN1CCCC1)[C@H](O)c1ccnc(Cl)c1 [Example 27, N-((1R,2R)-1-(2-chloropyridin-4-yl)-1-hydroxy-3-(pyrrolidin-1-yl)propan-2-yl)-2-(2,3-dihydro-1H-inden-2-yl)acetamide] |  | 66.6 nM

From patent US20230212123A1, “Pyridine Inhibitors of Glucosylceramide Synthase and Therapeutic Methods Using the Same” (THE REGENTS OF THE UNIVERSITY OF MICHIGAN, priority 2020, published 2023)
